Source: PubChem BioAssay AID1918955 (Molecular Pharmacology Branch, DTP, NCI, 2023)

Test system: NCI/ADR-RES complex spheroid viability
Assay: Anticancer human tumor NCI/ADR-RES cell line growth inhibition;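 also: spheroids exposed to compounds for 7 days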;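 as to viability, T/C: 100% = DMSO vehicle treated spheroids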
Details: for IC50: curve of first compound; for viability, T/C: stronger effect = lower value; active = viability on the fitted dose curve at most 10% of control; inactive = the rest
How it was run: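 Drug combinations with the LSD1 inhibitor iadademstat tested on tumor cells co-cultured as spheroids with endothelial cells and mesenchymal stem cells. Concentrations descended in half-log increments from clinical Cmax or 10 microM.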

[1] = second compound 0.1 µM, first compound 0.0316 µM
[2] = second compound 0.1 µM, first compound 0.1 µM
[3] = second compound 0.316 µM, first compound 0.0316 µM
[4] = second compound 0.316 µM, first compound 0.1 µM
[5] = second compound 1 µM, first compound 0.0316 µM
[6] = second compound 1 µM, first compound 0.1 µM
[7] = second compound 3.16 µM, first compound 0.0316 µM
[8] = second compound 3.16 µM, first compound 0.1 µM
[9] = second compound 10 µM, first compound 0.0316 µM
[10] = second compound 10 µM, first compound 0.1 µM

CC1(C)CCC(CN2CCN(c3ccc(C(=O)NS(=O)(=O)c4ccc(NCC5CCOCC5)c([N+](=O)[O-])c4)c(Oc4cnc5[nH]ccc5c4)c3)CC2)=C(c2ccc(Cl)cc2)C1 + NC1CCC(NC2CC2c2ccccc2)CC1
> 10000 nM: IC50 (second compound 0.1 µM) | IC50 (second compound 0.316 µM) | IC50 (second compound 1 µM) | IC50 (second compound 3.16 µM) | IC50 (second compound 10 µM)
inactive: viability, T/C [1] 98.7% | viability, T/C [2] 101% | viability, T/C (second compound 0.1 µM, first compound 0.316 µM) 93.5% | viability, T/C (second compound 0.1 µM, first compound 1 µM) 103% | viability, T/C (second compound 0.1 µM, first compound 3.16 µM) 96.8% | viability, T/C (second compound 0.1 µM, first compound 10 µM) 91.3% | viability, T/C [3] 91.8% | viability, T/C [4] 103% | viability, T/C (second compound 0.316 µM, first compound 0.316 µM) 99.2% | viability, T/C (second compound 0.316 µM, first compound 1 µM) 104% | viability, T/C (second compound 0.316 µM, first compound 3.16 µM) 103% | viability, T/C (second compound 0.316 µM, first compound 10 µM) 100% | viability, T/C [5] 97.2% | viability, T/C [6] 108% | viability, T/C (second compound 1 µM, first compound 0.316 µM) 102% | viability, T/C (second compound 1 µM, first compound 1 µM) 114% | viability, T/C (second compound 1 µM, first compound 3.16 µM) 102% | viability, T/C (second compound 1 µM, first compound 10 µM) 100% | viability, T/C [7] 99.6% | viability, T/C [8] 104% | viability, T/C (second compound 3.16 µM, first compound 0.316 µM) 101% | viability, T/C (second compound 3.16 µM, first compound 1 µM) 104% | viability, T/C (second compound 3.16 µM, first compound 3.16 µM) 96.3% | viability, T/C (second compound 3.16 µM, first compound 10 µM) 89.9% | viability, T/C [9] 84.5% | viability, T/C [10] 90% | viability, T/C (second compound 10 µM, first compound 0.316 µM) 105% | viability, T/C (second compound 10 µM, first compound 1 µM) 94.5% | viability, T/C (second compound 10 µM, first compound 3.16 µM) 94.3% | viability, T/C (second compound 10 µM, first compound 10 µM) 85.4%

Cn1ncnc1C1c2n[nH]c(=O)c3cc(F)cc(c23)NC1c1ccc(F)cc1 (stereo not given) + NC1CCC(NC2CC2c2ccccc2)CC1
inactive: viability, T/C (second compound 0.1 µM, first compound 0.000316 µM) 110% | viability, T/C (second compound 0.1 µM, first compound 0.001 µM) 108% | viability, T/C (second compound 0.1 µM, first compound 0.00316 µM) 110% | viability, T/C (second compound 0.1 µM, first compound 0.01 µM) 103% | viability, T/C [1] 103% | viability, T/C [2] 96.6% | viability, T/C (second compound 0.316 µM, first compound 0.000316 µM) 109% | viability, T/C (second compound 0.316 µM, first compound 0.001 µM) 106% | viability, T/C (second compound 0.316 µM, first compound 0.00316 µM) 102% | viability, T/C (second compound 0.316 µM, first compound 0.01 µM) 102% | viability, T/C [3] 104% | viability, T/C [4] 103% | viability, T/C (second compound 1 µM, first compound 0.000316 µM) 105% | viability, T/C (second compound 1 µM, first compound 0.001 µM) 109% | viability, T/C (second compound 1 µM, first compound 0.00316 µM) 105% | viability, T/C (second compound 1 µM, first compound 0.01 µM) 104% | viability, T/C [5] 102% | viability, T/C [6] 98% | viability, T/C (second compound 3.16 µM, first compound 0.000316 µM) 106% | viability, T/C (second compound 3.16 µM, first compound 0.001 µM) 109% | viability, T/C (second compound 3.16 µM, first compound 0.00316 µM) 104% | viability, T/C (second compound 3.16 µM, first compound 0.01 µM) 109% | viability, T/C [7] 101% | viability, T/C [8] 105% | viability, T/C (second compound 10 µM, first compound 0.000316 µM) 89.4% | viability, T/C (second compound 10 µM, first compound 0.001 µM) 95.9% | viability, T/C (second compound 10 µM, first compound 0.00316 µM) 102% | viability, T/C (second compound 10 µM, first compound 0.01 µM) 92.9% | viability, T/C [9] 89.8% | viability, T/C [10] 84.5%
> 100 nM: IC50 (second compound 0.1 µM) | IC50 (second compound 0.316 µM) | IC50 (second compound 1 µM) | IC50 (second compound 3.16 µM) | IC50 (second compound 10 µM)

NS(=O)(=O)OCC1CC(n2ccc3c(NC4CCc5ccccc54)ncnc32)CC1O (stereo not given) + NC1CCC(NC2CC2c2ccccc2)CC1
986 nM: IC50 (second compound 0.1 µM)
inactive: viability, T/C (second compound 0.1 µM, first compound 0.00949 µM) 99.1% | viability, T/C (second compound 0.1 µM, first compound 0.03 µM) 98.9% | viability, T/C (second compound 0.1 µM, first compound 0.0949 µM) 84.9% | viability, T/C (second compound 0.1 µM, first compound 0.3 µM) 73.8% | viability, T/C (second compound 0.1 µM, first compound 0.949 µM) 52.3% | viability, T/C (second compound 0.1 µM, first compound 3 µM) 14.4% | viability, T/C (second compound 0.316 µM, first compound 0.00949 µM) 99.2% | viability, T/C (second compound 0.316 µM, first compound 0.03 µM) 92.4% | viability, T/C (second compound 0.316 µM, first compound 0.0949 µM) 87.5% | viability, T/C (second compound 0.316 µM, first compound 0.3 µM) 74.7% | viability, T/C (second compound 0.316 µM, first compound 0.949 µM) 47.9% | viability, T/C (second compound 0.316 µM, first compound 3 µM) 15.7% | viability, T/C (second compound 1 µM, first compound 0.00949 µM) 109% | viability, T/C (second compound 1 µM, first compound 0.03 µM) 95.6% | viability, T/C (second compound 1 µM, first compound 0.0949 µM) 86.5% | viability, T/C (second compound 1 µM, first compound 0.3 µM) 70.3% | viability, T/C (second compound 1 µM, first compound 0.949 µM) 43.3% | viability, T/C (second compound 1 µM, first compound 3 µM) 16.8% | viability, T/C (second compound 3.16 µM, first compound 0.00949 µM) 93.6% | viability, T/C (second compound 3.16 µM, first compound 0.03 µM) 93% | viability, T/C (second compound 3.16 µM, first compound 0.0949 µM) 86.2% | viability, T/C (second compound 3.16 µM, first compound 0.3 µM) 70.8% | viability, T/C (second compound 3.16 µM, first compound 0.949 µM) 40.4% | viability, T/C (second compound 3.16 µM, first compound 3 µM) 20.4% | viability, T/C (second compound 10 µM, first compound 0.00949 µM) 87.3% | viability, T/C (second compound 10 µM, first compound 0.03 µM) 86.8% | viability, T/C (second compound 10 µM, first compound 0.0949 µM) 73.8% | viability, T/C (second compound 10 µM, first compound 0.3 µM) 50.5% | viability, T/C (second compound 10 µM, first compound 0.949 µM) 31.3%
active: viability, T/C (second compound 10 µM, first compound 3 µM) 7.61%
353 nM: IC50 (second compound 10 µM)
890 nM: IC50 (second compound 0.316 µM)
740 nM: IC50 (second compound 1 µM)
660 nM: IC50 (second compound 3.16 µM)
